target: DNA-PK (Homo sapiens, UniProt P78527); experiment: DNA-PK Inhibition Assay (standard radiometric kinase assay, 33P-ATP, peptide substrate); format: biochemical; conditions: radiometric assay, approximately 6 nM DNA-PK, 100 μM ATP, 45 min; fit to competitive tight-binding inhibition; read-out: Ki for the inhibition of DNA-PK
Description: Compounds were screened for their ability to inhibit DNA-PK kinase using a standard radiometric assay. Briefly, in this kinase assay the transfer of the terminal ^33P-phosphate in ^33P-ATP to a peptide substrate is interrogated. The assay was carried out in 384-well plates to a final volume of 50 μL per well containing approximately 6 nM DNA-PK, 50 mM HEPES (pH 7.5), 10 mM MgCl2, 25 mM NaCl, 0.01% BSA, 1 mM DTT, 10 μg/mL sheared double-stranded DNA (obtained from Sigma), 0.8 mg/mL DNA-PK peptide (Glu-Pro-Pro-Leu-Ser-Gln-Glu-Ala-Phe-Ala-Asp-Leu-Trp-Lys-Lys-Lys, obtained from American Peptide), and 100 μM ATP. Accordingly, compounds of the invention were dissolved in DMSO to make 10 mM initial stock solutions. Serial dilutions in DMSO were then made to obtain the final solutions for the assay. A 0.75 μL aliquot of DMSO or inhibitor in DMSO was added to each well, followed by the addition of ATP substrate solution containing ^33P-ATP (obtained from Perkin Elmer). The reaction was started by the addition of DNA-PK, peptide and ds-DNA. After 45 min, the reaction was quenched with 25 μL of 5% phosphoric acid. The reaction mixture was transferred to MultiScreen HTS 384-well PH plates (obtained from Millipore), allowed to bind for one hour, and washed three times with 1% phosphoric acid. Following the addition of 50 μL of Ultima Gold™ high efficiency scintillant (obtained from Perkin Elmer), the samples were counted in a Packard TopCount NXT Microplate Scintillation and Luminescence Counter (Packard BioScience). The Ki values were calculated using Microsoft Excel Solver macros to fit the data to the kinetic model for competitive tight-binding inhibition.

Ki [nM] | Structure (SMILES)
< 100 | OCc1cc(N[C@H]2CC[C@@H](Oc3cc(N4CCOCC4)cc4nccnc34)CC2)ncn1 [Compound 424]
< 100 | CC(C)(C)NC(=O)N[C@H]1CC[C@@H](Oc2cc(N3CCOCC3)cc3nccnc23)CC1 [Compound 425]
< 100 | Cc1ncc(-c2cc(N[C@H]3CC[C@@H](Oc4cc(N5CCOCC5)cc5nccnc45)CC3)ncn2)cn1 [Compound 426]
< 100 | FC(F)(F)c1ccc(N[C@H]2CC[C@@H](Oc3cc(N4CCOCC4)cc4nccnc34)CC2)cn1 [Compound 427]
< 100 | FC(F)(F)c1ncc(N[C@H]2CC[C@@H](Oc3cc(N4CCOCC4)cc4nccnc34)CC2)cn1 [Compound 428]
< 100 | FC(F)(F)c1cncc(N[C@H]2CC[C@@H](Oc3cc(N4CCOCC4)cc4nccnc34)CC2)c1 [Compound 429]
< 100 | CN1CCN(CCc2cnc(N[C@H]3CC[C@@H](Oc4cc(N5CCOCC5)cc5nccnc45)CC3)nc2)CC1 [Compound 430]
< 100 | CN(C)CCc1cnc(N[C@H]2CC[C@@H](Oc3cc(N4CCOCC4)cc4nccnc34)CC2)nc1 [Compound 431]
< 100 | c1cnc2c(O[C@H]3CC[C@@H](Nc4ncc(CCN5CCCC5)cn4)CC3)cc(N3CCOCC3)cc2n1 [Compound 432]
< 100 | c1cnc2c(O[C@H]3CC[C@@H](Nc4ncc(CCN5CCCCC5)cn4)CC3)cc(N3CCOCC3)cc2n1 [Compound 433]
< 100 | c1cnc2c(O[C@H]3CC[C@@H](Nc4ncc(CCN5CCOCC5)cn4)CC3)cc(N3CCOCC3)cc2n1 [Compound 434]
< 100 | Cc1nc(N[C@H]2CC[C@@H](Oc3cc(N4CCOCC4)cc4nccnc34)CC2)c2occc2n1 [Compound 435]
< 100 | Cc1nc(C)c(C)c(N[C@H]2CC[C@@H](Oc3cc(N4CCOCC4)cc4nccnc34)CC2)n1 [Compound 436]
< 100 | Fc1c[nH]c2ncnc(N[C@H]3CC[C@@H](Oc4cc(N5CCOCC5)cc5nccnc45)CC3)c12 [Compound 437]
< 100 | COc1cncnc1N[C@H]1CC[C@@H](Oc2cc(N3CCOCC3)cc3nccnc23)CC1 [Compound 438]
< 100 | CCc1nccc(N[C@H]2CC[C@@H](Oc3cc(N4CCOCC4)cc4nccnc34)CC2)n1 [Compound 439]
< 100 | COc1cc(N[C@H]2CC[C@@H](Oc3cc(N4CCOCC4)cc4nccnc34)CC2)ccn1 [Compound 440]
< 100 | Cc1cnc(C)c(N[C@H]2CC[C@@H](Oc3cc(N4CCOCC4)cc4nccnc34)CC2)c1 [Compound 441]
< 100 | Cc1ncccc1N[C@H]1CC[C@@H](Oc2cc(N3CCOCC3)cc3nccnc23)CC1 [Compound 442]
< 100 | Cc1ccncc1N[C@H]1CC[C@@H](Oc2cc(N3CCOCC3)cc3nccnc23)CC1 [Compound 443]
< 100 | Cc1ccc(N[C@H]2CC[C@@H](Oc3cc(N4CCOCC4)cc4nccnc34)CC2)cn1 [Compound 444]
< 100 | COc1ncccc1N[C@H]1CC[C@@H](Oc2cc(N3CCOCC3)cc3nccnc23)CC1 [Compound 445]
< 100 | COc1cncc(N[C@H]2CC[C@@H](Oc3cc(N4CCOCC4)cc4nccnc34)CC2)c1 [Compound 446]
< 100 | COc1ccc(N[C@H]2CC[C@@H](Oc3cc(N4CCOCC4)cc4nccnc34)CC2)cn1 [Compound 447]
< 100 | Cc1ncncc1N[C@H]1CC[C@@H](Oc2cc(N3CCOCC3)cc3nccnc23)CC1 [Compound 448]
< 100 | Cc1ncc(N[C@H]2CC[C@@H](Oc3cc(N4CCOCC4)cc4nccnc34)CC2)c(C)n1 [Compound 449]
< 100 | Cc1ncc(N[C@H]2CC[C@@H](Oc3cc(N4CCOCC4)cc4nccnc34)CC2)cn1 [Compound 450]
< 100 | Cc1nc2c(c(N[C@H]3CC[C@@H](Oc4cc(N5CCOCC5)cc5nccnc45)CC3)n1)COC2 [Compound 452]
< 100 | CN(C)c1nccc(N[C@H]2CC[C@@H](Oc3cc(N4CCOCC4)cc4nccnc34)CC2)n1 [Compound 453]
< 100 | CNc1nccc(N[C@H]2CC[C@@H](Oc3cc(N4CCOCC4)cc4nccnc34)CC2)n1 [Compound 454]
